Experimental data from patent US11571389B2, “Delivery devices and methods for making the same” (THE REGENTS OF THE UNIVERSITY OF MICHIGAN, priority 2016, dated 2023).

Tests used:
mouse calvarial defect = assay: Mouse calvarial critical size defect with nanofibrous scaffold: μCT of new bone 8 weeks after implantation; format: in vivo, C57BL/6 mice; conditions: compared to the control BSA group; μCT and histomorphometry
Experimental: To determine the optimal PTH release mode to ensure desired PTH anabolic action in bone regeneration, the pulsatile PTH delivery device and the continuous PTH delivery device were compared in identical experimental set ups to access the outcomes of bone regeneration in a critical size (2.3 mm in diameter) round defect created in the mouse skull. The BSA loaded pulsatile devices were used as vehicle controls. All animal procedures were performed following a protocol approved by the University of Michigan Institutional Animal Care and Use Committee. C57BL/6 mice were randomly divided into four groups. Animals were anaesthetized with isoflurane (2%) inhalation. The 2.3 mm diameter craniotomy defect centered on the parietal calvarial bone was created using a trephine. A blank nanofibrous scaffold was placed to fill in the defect and a delivery device (pulsatile PTH, continuous PTH, or BSA control device) was placed adjacent to the scaffold with the opening side facing the scaffold (see FIG. 24). […]
For the calvarial bone analysis, the skulls were scanned with a fixed global threshold of 20%. 3D reconstruction of the skull and quantitative analyses were performed. A 2.3 mm-round region of interest centered on the defect was determined and the bone volume (mm^3) (BV) and bone mineral density (BMD) in the area were measured using manufacturer's software (Scanco μCT 100).

TRAP5b = assay: Serum TRAP5b ELISA three weeks after implantation, Example 2; format: in vivo, C57BL/6 mice
Experimental: (§1) Three weeks after implantation, the mice were anaesthetized with inhalation of isoflurane (2%) and blood was collected by tail blood draw. After centrifuge for 10 minutes at 13000 rpm, serum was separated and kept frozen until biochemical assays were performed. Serum procollagen I N-terminal propeptide (P1NP) (MyBioSource, Inc) and TRAP5b (Novatein Biosciences, Mass.) ELISA immunoassays were performed following the manufacturer's protocols. The ELISA analyses were employed to evaluate the levels of bone biomarkers.

mouse tibiae = assay: Tibiae μCT to assess systemic side effects of local PTH release, Example 2; format: in vivo, C57BL/6 mice; conditions: compared to the BSA control group
Experimental: To determine the optimal PTH release mode to ensure desired PTH anabolic action in bone regeneration, the pulsatile PTH delivery device and the continuous PTH delivery device were compared in identical experimental set ups to access the outcomes of bone regeneration in a critical size (2.3 mm in diameter) round defect created in the mouse skull. The BSA loaded pulsatile devices were used as vehicle controls. All animal procedures were performed following a protocol approved by the University of Michigan Institutional Animal Care and Use Committee. C57BL/6 mice were randomly divided into four groups. Animals were anaesthetized with isoflurane (2%) inhalation. The 2.3 mm diameter craniotomy defect centered on the parietal calvarial bone was created using a trephine. A blank nanofibrous scaffold was placed to fill in the defect and a delivery device (pulsatile PTH, continuous PTH, or BSA control device) was placed adjacent to the scaffold with the opening side facing the scaffold (see FIG. 24).
Rather, PTH was subcutaneously injected for 3 weeks (21 days) using a standard systemic administration dose (40 μg/kg/d). […]
Mouse tibiae from the different groups were examined using μCT to assess the potential systemic side effects of the local PTH releases. […] A region of 0.75 mm right below the growth plate was analyzed to quantify the trabecular bone volume.

[1] = in vivo; cited from earlier work
[2] = test system: procollagen I N-terminal propeptide (P1NP); assay: Serum P1NP ELISA three weeks after implantation, Example 2; format: in vivo, C57BL/6 mice
Experimental: as §1

With PTH (1-34) the “bone growth in the nanofibrous scaffold” value (mouse calvarial defect) was “significantly promoted”, the “serum TRAP5b level (bone resorption marker)” value (TRAP5b) was “significantly elevated” and the “tibia trabecular bone volume” value (mouse tibiae) was “significantly increased”. For the same substance, the half-life [1] was 8 min and the “serum P1NP level (bone formation marker)” value [2] was “significantly elevated”.
